From US20250145633A1, “SUBSTITUTED FURANOPYRIMIDINE COMPOUNDS AS PDE1 INHIBITORS” (Dart NeuroScience, LLC, priority 2017, published 2025)

The compounds below were run against human PDE1B enzyme (Homo sapiens (Human), UniProt Q01064) (assay: IMAP TR-FRET PDE1B enzymatic assay). Settings: negative log of half-maximal molar inhibitory concentration; 200 nM FAM-cAMP; values given as bins.
Type: biochemical
In short: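 Full-length GST-tagged human PDE1B (250 pg/well) in IMAP BSA buffer with 10 U/ml calmodulin and 2.5 mM CaCl2; compound pre-incubated 5 min at room temperature, then 200 nM (final) FAM-cAMP for 30 min. IMAP binding reagent/Tb added, 1 h; TR-FRET 520/490 ratio read. IC50 from sigmoidal dose-response fit.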

SMILES | PDE1b (pIC50)
Cc1oc2ncnc(NC3(C)CC3)c2c1C(=O)N1CCC(c2ncc(Cl)cn2)C1 (stereo not shown) [Example 335, 5-[3-(5-Chloropyrimidin-2-yl)pyrrolidine-1-carbonyl]-6-methyl-N-(1-methylcyclopropyl)furo[2,3-d]pyrimidin-4-amine] | >8
Cc1oc2ncnc(NC3(C)CC3)c2c1C(=O)N1CCN(c2ccccn2)CC1 [Example 42, 6-Methyl-N-(1-methylcyclopropyl)-5-[4-(pyridin-2-yl)piperazine-1-carbonyl]furo[2,3-d]pyrimidin-4-amine] | >8
COc1ccc(C(C)NC(=O)c2c(C)oc3ncnc(NC4(C)CC4)c23)cc1C (stereo not shown) [Example 502, N-[1-(4-Methoxy-3-methylphenyl)ethyl]-6-methyl-4-[(1-methylcyclopropyl)amino]furo[2,3-d]pyrimidine-5-carboxamide] | >8
COc1ccc(CNC(=O)c2c(C)oc3ncnc(NC4(C)CC4)c23)c(F)c1F [Example 185, N-[(2,3-Difluoro-4-methoxyphenyl)methyl]-6-methyl-4-[(1-methylcyclopropyl)amino]furo[2,3-d]pyrimidine-5-carboxamide] | >8
COc1ccc(C(C)NC(=O)c2c(C)oc3ncnc(NC4(C)CC4)c23)cc1OC (stereo in doubt) [Example 556, N-[(1R)-1-(3,4-Dimethoxyphenyl)ethyl]-6-methyl-4-[(1-methylcyclopropyl)amino]furo[2,3-d]pyrimidine-5-carboxamide] | >8
Cc1ccc(CNC(=O)c2c(C)oc3ncnc(NC4(C)CC4)c23)cc1C [Example 237, N-[(3,4-Dimethylphenyl)methyl]-6-methyl-4-[(1-methylcyclopropyl)amino]furo[2,3-d]pyrimidine-5-carboxamide] | >8
Cc1ccc(C2CCN(C(=O)c3c(C)oc4ncnc(NC5(C)CC5)c34)CC2)cc1 [Example 384, 6-Methyl-N-(1-methylcyclopropyl)-5-[4-(4-methylphenyl)piperidine-1-carbonyl]furo[2,3-d]pyrimidin-4-amine] | >8
Cc1oc2ncnc(NC3(C)CC3)c2c1C(=O)NCc1nc(C(F)(F)F)cs1 [Example 704, 6-Methyl-4-[(1-methylcyclopropyl)amino]-N-{[4-(trifluoromethyl)-1,3-thiazol-2-yl]methyl}furo[2,3-d]pyrimidine-5-carboxamide] | >8

Same assay, conditions: negative log of half-maximal molar inhibitory concentration; 200 nM FAM-cAMP; values given as bins; read-out: PDE1b (pIC50) (converted)

SMILES | IC50 [nM]
Cc1oc2ncnc(NC3(C)CC3)c2c1C(=O)NC(C)c1cncnc1 (stereo not shown) [Example 710, 6-Methyl-4-[(1-methylcyclopropyl)amino]-N-[1-(pyrimidin-5-yl)ethyl]furo[2,3-d]pyrimidine-5-carboxamide] | 10 to 100
Cc1nn(C(=O)c2c(C)oc3ncnc(NC4(C)CC4)c23)c(C)c1C [Example 409, 6-Methyl-N-(1-methylcyclopropyl)-5-(trimethyl-1H-pyrazole-1-carbonyl)furo[2,3-d]pyrimidin-4-amine] | 10 to 100
COc1ccc(NC(=O)c2c(C)oc3ncnc(NC4(C)CC4)c23)nc1 [Example 144, N-(5-Methoxypyridin-2-yl)-6-methyl-4-[(1-methylcyclopropyl)amino]furo[2,3-d]pyrimidine-5-carboxamide] | 10 to 100
Cc1oc2ncnc(NC3(C)CC3)c2c1C(=O)NC(C)C1CC1 (stereo not shown) [Example 400, N-(1-Cyclopropylethyl)-6-methyl-4-[(1-methylcyclopropyl)amino]furo[2,3-d]pyrimidine-5-carboxamide] | 10 to 100
COc1ccc(CN(C)C(=O)c2c(C)oc3ncnc(NC4(C)CC4)c23)cc1O [Example 604, N-[(3-Hydroxy-4-methoxyphenyl)methyl]-N,6-dimethyl-4-[(1-methylcyclopropyl)amino]furo[2,3-d]pyrimidine-5-carboxamide] | 10 to 100
COc1cccc(F)c1CNC(=O)c1c(C)oc2ncnc(NC3(C)CC3)c12 [Example 547, N-[(2-Fluoro-6-methoxyphenyl)methyl]-6-methyl-4-[(1-methylcyclopropyl)amino]furo[2,3-d]pyrimidine-5-carboxamide] | 10 to 100
Cc1cccc(NC(=O)c2c(C)oc3ncnc(NC4(C)CC4)c23)c1 [Example 180, 6-Methyl-4-[(1-methylcyclopropyl)amino]-N-(3-methylphenyl)furo[2,3-d]pyrimidine-5-carboxamide] | 10 to 100
Cc1oc2ncnc(NC3(C)CC3)c2c1C(=O)NCCC1CCCCC1 [Example 225, N-(2-Cyclohexylethyl)-6-methyl-4-[(1-methylcyclopropyl)amino]furo[2,3-d]pyrimidine-5-carboxamide] | 10 to 100
COc1ccc(CNC(=O)c2c(C)oc3ncnc(NC4(C)CC4)c23)c(C)c1 [Example 524, N-[(4-Methoxy-2-methylphenyl)methyl]-6-methyl-4-[(1-methylcyclopropyl)amino]furo[2,3-d]pyrimidine-5-carboxamide] | 10 to 100
Cc1oc2ncnc(NC3(C)CC3)c2c1C(=O)N1CCC(c2ccccn2)C1 (stereo not shown) [Example 70, 6-Methyl-N-(1-methylcyclopropyl)-5-[3-(pyridin-2-yl)pyrrolidine-1-carbonyl]furo[2,3-d]pyrimidin-4-amine] | 10 to 100
COc1ccccc1OC1CN(C(=O)c2c(C)oc3ncnc(NC4(C)CC4)c23)C1 [Example 589, 5-[3-(2-Methoxyphenoxy)azetidine-1-carbonyl]-6-methyl-N-(1-methylcyclopropyl)furo[2,3-d]pyrimidin-4-amine] | 10 to 100
Cc1oc2ncnc(NC3(C)CC3)c2c1C(=O)NC(C)C [Example 136, 6-Methyl-4-[(1-methylcyclopropyl)amino]-N-(propan-2-yl)furo[2,3-d]pyrimidine-5-carboxamide] | 10 to 100
COc1ccc(C2CCN(C(=O)c3c(C)oc4ncnc(NC5(C)CC5)c34)CC2)nn1 [Example 364, 5-[4-(6-Methoxypyridazin-3-yl)piperidine-1-carbonyl]-6-methyl-N-(1-methylcyclopropyl)furo[2,3-d]pyrimidin-4-amine] | 10 to 100
Cc1nc(CNC(=O)c2c(C)oc3ncnc(NC4(C)CC4)c23)co1 [Example 747, 6-Methyl-N-[(2-methyl-1,3-oxazol-4-yl)methyl]-4-[(1-methylcyclopropyl)amino]furo[2,3-d]pyrimidine-5-carboxamide] | 10 to 100
COc1nc(C2CC2)nc2c1CN(C(=O)c1c(C)oc3ncnc(NC4(C)CC4)c13)C2 [Example 687, 5-{2-Cyclopropyl-4-methoxy-5H,6H,7H-pyrrolo[3,4-d]pyrimidine-6-carbonyl}-6-methyl-N-(1-methylcyclopropyl)furo[2,3-d]pyrimidin-4-amine] | 10 to 100
CCOc1cccc(F)c1CNC(=O)c1c(C)oc2ncnc(NC3(C)CC3)c12 [Example 552, N-[(2-Ethoxy-6-fluorophenyl)methyl]-6-methyl-4-[(1-methylcyclopropyl)amino]furo[2,3-d]pyrimidine-5-carboxamide] | 10 to 100
Cc1oc2ncnc(NC3(C)CC3)c2c1C(=O)NC1CCN(c2ncccn2)CC1 [Example 665, 6-Methyl-4-[(1-methylcyclopropyl)amino]-N-[1-(pyrimidin-2-yl)piperidin-4-yl]furo[2,3-d]pyrimidine-5-carboxamide] | 10 to 100
Cc1cc(N2CCC(NC(=O)c3c(C)oc4ncnc(NC5(C)CC5)c34)CC2)ncn1 [Example 671, 6-Methyl-4-[(1-methylcyclopropyl)amino]-N-[1-(6-methylpyrimidin-4-yl)piperidin-4-yl]furo[2,3-d]pyrimidine-5-carboxamide] | 100 to 1000
Cc1oc2ncnc(NC3(C)CC3)c2c1C(=O)NCc1ncc(F)cn1 [Example 292, N-[(5-Fluoropyrimidin-2-yl)methyl]-6-methyl-4-[(1-methylcyclopropyl)amino]furo[2,3-d]pyrimidine-5-carboxamide] | 10 to 100
Cc1oc2ncnc(NC3(C)CC3)c2c1C(=O)Nc1ccc(C2CCOCC2)cn1 [Example 727, 6-Methyl-4-[(1-methylcyclopropyl)amino]-N-[5-(oxan-4-yl)pyridin-2-yl]furo[2,3-d]pyrimidine-5-carboxamide] | 10 to 100
Cc1oc2ncnc(NC3(C)CC3)c2c1C(=O)NCc1ccon1 [Example 92, 6-Methyl-4-[(1-methylcyclopropyl)amino]-N-(1,2-oxazol-3-ylmethyl)furo[2,3-d]pyrimidine-5-carboxamide] | 10 to 100
C=CCN(Cc1ccc(OC)cc1)C(=O)c1c(C)oc2ncnc(NC3(C)CC3)c12 [Example 508, N-[(4-Methoxyphenyl)methyl]-6-methyl-4-[(1-methylcyclopropyl)amino]-N-(prop-2-en-1-yl)furo[2,3-d]pyrimidine-5-carboxamide] | 10 to 100
COc1nccc2c1CCN(C(=O)c1c(C)oc3ncnc(NC4(C)CC4)c13)C2 [Example 40, 5-(5-Methoxy-1,2,3,4-tetrahydro-2,6-naphthyridine-2-carbonyl)-6-methyl-N-(1-methylcyclopropyl)furo[2,3-d]pyrimidin-4-amine] | 10 to 100
Cc1oc2ncnc(NC3(C)CC3)c2c1C(=O)NCc1ccnc(C(C)C)n1 [Example 644, 6-Methyl-4-[(1-methylcyclopropyl)amino]-N-{[2-(propan-2-yl)pyrimidin-4-yl]methyl}furo[2,3-d]pyrimidine-5-carboxamide] | 10 to 100
CCOCC1(CNC(=O)c2c(C)oc3ncnc(NC4(C)CC4)c23)CC1 [Example 275, N-{[1-(Ethoxymethyl)cyclopropyl]methyl}-6-methyl-4-[(1-methylcyclopropyl)amino]furo[2,3-d]pyrimidine-5-carboxamide] | 10 to 100
Cc1oc2ncnc(NC3(C)CC3)c2c1C(=O)NC1(C)CCOCC1 [Example 109, 6-Methyl-4-[(1-methylcyclopropyl)amino]-N-(4-methyloxan-4-yl)furo[2,3-d]pyrimidine-5-carboxamide] | 10 to 100
